According to patent US20250032651A1, “[177LU] LUTETIUM-PSMA I&T COMPOSITION AND DOSIMETRY, KIT, METHOD OF MAKING, AND METHOD OF USING THEREOF” (Curium US LLC, priority 2022, published 2025):
Values joined by “and” are separate entries in the source; they are usually repeats but may differ in a detail not shown here. Identical values can stand only once.

Assay: Plasma PK: gamma-counted plasma radioactivity, bi-exponential fit
Type: in vivo, human
Procedure: Additionally, for PK assessment, whole blood samples were collected at six timepoints (Pre-Infusion, 1 h, 4 h, 24 h, 48 h, and 168 h) and processed to extract plasma. All plasma samples were gamma counted locally for analysis of pharmacokinetics.
PK plasma samples were collected at pre-Infusion, 1 h, 4 h, 24 h, 48 h, and 168 h, and counted for radioactivity. Blood samples were first centrifuged to extract plasma, and then the radioactivity in plasma was counted in a gamma counter.
Whole blood samples were collected as detailed in the protocol Schedule of Events i.e. pre-injection, and then at 1 h, 4 h, 24 h, 48 h, and 168 h post-injection. The samples were first centrifuged to separate plasma, and the radioactivity in the plasma was then measured using a gamma counter. Plasma concentrations were subsequently fitted with a bi-exponential function to derive outcome parameters such as the half-life and clearance rate of the radiopharmaceutical in the plasma.

[1] = Cycle 1, plasma radioactivity, bi-exponential fit
[2] = plasma, Cycle 1, excluding patient 42-030
[3] = plasma, Cycle 1, individual patient values
[4] = plasma, Cycle 1, individual patients

With `O=C([O-])CC[C@H](NC(=O)N[C@@H](CCCCNC(=O)CCCCCCC(=O)NCCCC[C@@H](NC(=O)[C@@H](Cc1ccccc1)NC(=O)[C@@H](Cc1ccc(O)c(I)c1)NC(=O)CC[C@H](C(=O)[O-])N1CCN(CC(=O)[O-])CCN(CC(=O)[O-])CCN(CC(=O)[O-])CC1)C(=O)[O-])C(=O)[O-])C(=O)[O-].[177Lu+3].[H+].[H+].[H+].[H+].[H+]` [^177Lu-PSMA I&T, (3S,7S,26R,29R,32R,37R)-29-benzyl-32-(4-hydroxy-3-iodobenzyl)-5,13,20,28,31,34-hexaoxo-37-(4,7,10-tris(carboxymethyl)-1,4,7,10-tetraazacyclododecan-1-yl)-4,6,12,21,27,30,33-heptaazaheptatriacontane-1,3,7,26,37-pentacarboxylic acid; lutetium-177 (III)] the plasma clearance (Cycle 1) was 13.06 ± 16.50 L/h, the “plasma half-life, outlier value” (Cycle 1, patient 42-030 (superscan)) was 113.96 h and the “time to peak plasma concentration” value (Cycle 1, patient 80-007, first post-administration sample delayed) was 127 min. For the same compound, the “plasma mean distribution half-life” value [1] was 1.89 ± 0.34 h, the “plasma mean elimination half-life” value [1] was 14.7 ± 10.1 h and 14.70 ± 10.10 h and the distribution volume (Cycle 1 plasma PK) was “moderate-to-high”. For the same compound, the “AUC Total” value (plasma, Cycle 1, Mean) was 22.77 fIA/L × min, the “Clearance Rate” value (plasma, Cycle 1, Mean) was 13.06 L/h and the “Peak Concentration Value” (plasma, Cycle 1, Mean) was 0.04 fIA/L. The “Time of Peak Concentration” value (plasma, Cycle 1, Mean) was 59.19 min, the Vc (plasma, Cycle 1, Mean) was 20.29 L and the Vd (plasma, Cycle 1, Mean) was 234.64 L. The “AUC Total, Mean” value [2] was 22.77 fIA/L x min, the “AUC Total, max” value [2] was 37.86 fIA/L x min and the “AUC Total, median” value [2] was 20.84 fIA/L x min. The “AUC Total, min” value [2] was 3.07 fIA/L x min, the “Clearance Rate, Mean” value [2] was 13.06 L/h and the “Clearance Rate, max” value [2] was 89.38 L/h. For the same compound, the “Clearance Rate, median” value [2] was 9.79 L/h, the “Clearance Rate, min” value [2] was 2.89 L/h and the “Distribution Half-Life, Mean” value [2] was 1.89 h. For the same compound, the “Distribution Half-Life, max” value [2] was 2.42 h, the “Distribution Half-Life, median” value [2] was 1.93 h and the “Distribution Half-Life, min” value [2] was 1.14 h. For the same compound, the “Elimination Half-Life, Mean” value [2] was 14.70 h, the “Elimination Half-Life, max” value [2] was 53.30 h and the “Elimination Half-Life, median” value [2] was 10.52 h. The “Elimination Half-Life, min” value [2] was 8.16 h, the “Peak Concentration Value, Mean” value [2] was 0.04 fIA/L and the “Peak Concentration Value, max” value [2] was 0.07 fIA/L. The “Peak Concentration Value, median” value [2] was 0.04 fIA/L, the “Peak Concentration Value, min” value [2] was 0.01 fIA/L and the “Time of Peak Concentration” value [2] was 33.00 min. For the same compound, the “Time of Peak Concentration, Mean” value [2] was 59.19 min, the “Time of Peak Concentration, max” value [2] was 127.00 min and the “Time of Peak Concentration, median” value [2] was 59.00 min. For the same compound, the “Vc, Mean” value [2] was 20.29 L, the “Vc, max” value [2] was 111.78 L and the “Vc, median” value [2] was 16.33 L. For the same compound, the “Vc, min” value [2] was 9.92 L, the “distribution volume (column headed "Patient"), Mean” value [2] was 234.64 and the “distribution volume (column headed "Patient"), max” value [2] was 1365.03. For the same compound, the “distribution volume (column headed "Patient"), median” value [2] was 157.12, the “distribution volume (column headed "Patient"), min” value [2] was 54.60 and the “AUC Total” value [3] was 30.05 fIA/L x min and 27.64 fIA/L x min and 20.58 fIA/L x min and 19.49 fIA/L x min and 3.07 fIA/L x min and 25.59 fIA/L x min and 25.58 fIA/L x min and 21.49 fIA/L x min and 26.70 fIA/L x min and 31.83 fIA/L x min and 15.14 fIA/L x min and 28.67 fIA/L x min and 17.09 fIA/L x min and 19.85 fIA/L x min and 34.96 fIA/L x min and 24.13 fIA/L x min and 13.46 fIA/L x min and 17.93 fIA/L x min and 18.79 fIA/L x min and 15.54 fIA/L x min and 19.50 fIA/L x min and 37.86 fIA/L x min and 21.09 fIA/L x min and 34.60 fIA/L x min and 33.81 fIA/L x min and 19.09 fIA/L x min and 15.16 fIA/L x min. The “Clearance Rate” value [3] was 3.89 L/h and 4.21 L/h and 9.97 L/h and 17.94 L/h and 89.38 L/h and 6.26 L/h and 9.62 L/h and 7.63 L/h and 2.82 L/h and 4.73 L/h and 21.26 L/h and 2.89 L/h and 20.65 L/h and 8.08 L/h and 5.73 L/h and 7.92 L/h and 17.68 L/h and 10.55 L/h and 14.19 L/h and 17.10 L/h and 10.68 L/h and 3.95 L/h and 13.78 L/h and 3.66 L/h and 4.78 L/h and 12.34 L/h and 10.74 L/h, the “Distribution Half-Life” value [3] was 1.14 h and 2.14 h and 1.88 h and 1.93 h and 1.69 h and 2.13 h and 2.19 h and 2.31 h and 1.81 h and 1.66 h and 1.78 h and 1.35 h and 1.77 h and 2.12 h and 1.92 h and 2.39 h and 1.30 h and 2.03 h and 2.42 h and 1.46 h and 2.05 h and 2.04 h and 2.22 h and 2.21 h and 1.67 h and the “Elimination Half-Life” value [3] was 9.61 h and 24.34 h and 15.32 h and 9.32 h and 10.58 h and 10.59 h and 12.43 h and 10.02 h and 10.46 h and 113.96 h and 9.19 h and 12.50 h and 53.30 h and 10.35 h and 9.28 h and 8.16 h and 8.92 h and 35.48 h and 8.68 h and 11.79 h and 19.98 h and 11.28 h and 9.41 h and 23.96 h and 16.65 h. For the same compound, the Vc [3] was 21.87 L and 15.83 L and 16.82 L and 13.76 L and 111.78 L and 17.80 L and 11.45 L and 20.41 L and 38.22 L and 10.76 L and 18.90 L and 22.65 L and 15.26 L and 21.10 L and 9.92 L and 17.87 L and 22.51 L and 14.72 L and 16.91 L and 25.15 L and 17.72 L and 12.87 L and 15.24 L and 14.74 L and 11.55 L and 15.53 L and 14.35 L, the “distribution volume (column headed "Patient")” value [3] was 136.62 and 93.01 and 134.00 and 273.75 and 1365.03 and 112.27 and 139.07 and 115.14 and 463.99 and 62.71 and 383.51 and 222.08 and 308.54 and 108.16 and 67.50 and 118.24 and 227.51 and 540.13 and 177.78 and 291.02 and 307.91 and 64.25 and 187.12 and 54.60 and 165.33 and 296.49 and 148.91 and the “Time of Peak Concentration” value (plasma, Cycle 1, individual patient values, time of first post-administration sample) was 53.00 min and 60.00 min (6×) and 51.00 min (2×) and 58.00 min and 61.00 min (2×) and 50.00 min and 63.00 min and 57.00 min and 55.00 min and 52.00 min (2×) and 68.00 min and 71.00 min and 65.00 min and 33.00 min and 40.00 min and 69.00 min and 56.00 min and 127.00 min and 47.00 min. For the same compound, the “Peak Concentration Value” (plasma, Cycle 1, individual patient values, value of first post-administration sample) was 0.04 fIA/L (10×) and 0.03 fIA/L (4×) and 0.05 fIA/L (7×) and 0.01 fIA/L and 0.06 fIA/L (2×) and 0.02 fIA/L and 0.07 fIA/L (2×), the “AUC Total” value [4] was 19.09 fIA/L × min and 15.16 fIA/L × min and 30.05 fIA/L × min and 27.64 fIA/L × min and 20.58 fIA/L × min and 19.49 fIA/L × min and 3.07 fIA/L × min and 25.59 fIA/L × min and 25.58 fIA/L × min and 21.49 fIA/L × min and 26.70 fIA/L × min and 31.83 fIA/L × min and 15.14 fIA/L × min and 28.67 fIA/L × min and 17.09 fIA/L × min and 19.85 fIA/L × min and 34.96 fIA/L × min and 24.13 fIA/L × min and 13.46 fIA/L × min and 17.93 fIA/L × min and 18.79 fIA/L × min and 15.54 fIA/L × min and 19.50 fIA/L × min and 37.86 fIA/L × min and 21.09 fIA/L × min and 34.60 fIA/L × min and 33.81 fIA/L × min and the “Clearance Rate” value [4] was 12.34 L/h and 10.74 L/h and 3.89 L/h and 4.21 L/h and 9.97 L/h and 17.94 L/h and 89.38 L/h and 6.26 L/h and 9.62 L/h and 7.63 L/h and 2.82 L/h and 4.73 L/h and 21.26 L/h and 2.89 L/h and 20.65 L/h and 8.08 L/h and 5.73 L/h and 7.92 L/h and 17.68 L/h and 10.55 L/h and 14.19 L/h and 17.10 L/h and 10.68 L/h and 3.95 L/h and 13.78 L/h and 3.66 L/h and 4.78 L/h. The “Peak Concentration Value” [4] was 0.05 fIA/L (7×) and 0.04 fIA/L (10×) and 0.03 fIA/L (4×) and 0.01 fIA/L and 0.06 fIA/L (2×) and 0.02 fIA/L and 0.07 fIA/L (2×), the “Time of Peak Concentration” value [4] was 47.00 min and 53.00 min and 60.00 min (6×) and 51.00 min (2×) and 58.00 min and 61.00 min (2×) and 50.00 min and 63.00 min and 57.00 min and 55.00 min and 52.00 min (2×) and 68.00 min and 71.00 min and 65.00 min and 33.00 min and 40.00 min and 69.00 min and the Vc [4] was 15.53 L and 14.35 L and 21.87 L and 15.83 L and 16.82 L and 13.76 L and 111.78 L and 17.80 L and 11.45 L and 20.41 L and 38.22 L and 10.76 L and 18.90 L and 22.65 L and 15.26 L and 21.10 L and 9.92 L and 17.87 L and 22.51 L and 14.72 L and 16.91 L and 25.15 L and 17.72 L and 12.87 L and 15.24 L and 14.74 L and 11.55 L. The Vd [4] was 296.49 L and 148.91 L and 136.62 L and 93.01 L and 134.00 L and 273.75 L and 1365.03 L and 112.27 L and 139.07 L and 115.14 L and 463.99 L and 62.71 L and 383.51 L and 222.08 L and 308.54 L and 108.16 L and 67.50 L and 118.24 L and 227.51 L and 540.13 L and 177.78 L and 291.02 L and 307.91 L and 64.25 L and 187.12 L and 54.60 L and 165.33 L, the “AUC Total” value (plasma, Cycle 1, max) was 37.86 fIA/L × min and the “Clearance Rate” value (plasma, Cycle 1, max) was 89.38 L/h. The “Peak Concentration Value” (plasma, Cycle 1, max) was 0.07 fIA/L, the “Time of Peak Concentration” value (plasma, Cycle 1, max) was 127.00 min and the Vc (plasma, Cycle 1, max) was 111.78 L. For the same compound, the Vd (plasma, Cycle 1, max) was 1365.03 L, the “AUC Total” value (plasma, Cycle 1, median) was 20.84 fIA/L × min and the “Clearance Rate” value (plasma, Cycle 1, median) was 9.79 L/h. The “Peak Concentration Value” (plasma, Cycle 1, median) was 0.04 fIA/L, the Vc (plasma, Cycle 1, median) was 16.33 L and the Vd (plasma, Cycle 1, median) was 157.12 L. The “AUC Total” value (plasma, Cycle 1, min) was 3.07 fIA/L × min, the “Clearance Rate” value (plasma, Cycle 1, min) was 2.89 L/h and the “Peak Concentration Value” (plasma, Cycle 1, min) was 0.01 fIA/L. For the same compound, the “Time of Peak Concentration” value (plasma, Cycle 1, min) was 33.00 min, the Vc (plasma, Cycle 1, min) was 9.92 L and the Vd (plasma, Cycle 1, min) was 54.60 L. The “AUC Total” value (plasma, Cycle 3, Mean (n=15)) was 25.58 fIA/L × min, the “Peak Concentration Value” (plasma, Cycle 3, Mean (n=15)) was 0.05 fIA/L and the “Rate Clearance” value (plasma, Cycle 3, Mean (n=15)) was 9.65 L/h. The Vc (plasma, Cycle 3, Mean (n=15)) was 16.40 L.
